Test results taken from the supplement of paper PMC10307832.

Key:
Experiment in all cases: relative viability (nuclei count vs DMSO), 5 days (fraction); higher = more cells survive
Venetoclax + Navitoclax = compound: CC1(C)CCC(CN2CCN(c3ccc(C(=O)NS(=O)(=O)c4ccc(NCC5CCOCC5)c([N+](=O)[O-])c4)c(Oc4cnc5[nH]ccc5c4)c3)CC2)=C(c2ccc(Cl)cc2)C1 [Venetoclax] + CC1(C)CCC(c2ccc(Cl)cc2)=C(CN2CCN(c3ccc(C(=O)NS(=O)(=O)c4ccc(N[C@H](CCN5CCOCC5)CSc5ccccc5)c(S(=O)(=O)C(F)(F)F)c4)cc3)CC2)C1 [Navitoclax] (partner 0.5 µM)
How it was run: (§1)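 Lung cancer cell lines were seeded in 1536-well plates and dosed by pin tool the next day, with either a single drug or a fixed anchor-drug dose combined with five library-drug doses (not always all listed) spaced in √10 steps. Five days later, one step fixed the cells and stained their nuclei (final 0.05% Triton X-100, 1% formaldehyde, 1 ug/ml Hoechst), and nuclei were counted on 4× images. Relative viability is the nuclei count in treated wells divided by the count in vehicle wells, and each value is the median of duplicate plates.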

Venetoclax + Phenformin = compound: CC1(C)CCC(CN2CCN(c3ccc(C(=O)NS(=O)(=O)c4ccc(NCC5CCOCC5)c([N+](=O)[O-])c4)c(Oc4cnc5[nH]ccc5c4)c3)CC2)=C(c2ccc(Cl)cc2)C1 [Venetoclax] + N=C(N)NC(=N)NCCc1ccccc1 [Phenformin] (partner 250 µM)
How it was run: as §1

Selumetinib + Luminespib = compound: Cn1cnc2c(F)c(Nc3ccc(Br)cc3Cl)c(C(=O)NOCCO)cc21 [Selumetinib] + CCNC(=O)c1noc(-c2cc(C(C)C)c(O)cc2O)c1-c1ccc(CN2CCOCC2)cc1 [Luminespib] (partner 0.01 µM)
How it was run: as §1

Selumetinib + Alpelisib = compound: Cn1cnc2c(F)c(Nc3ccc(Br)cc3Cl)c(C(=O)NOCCO)cc21 [Selumetinib] + Cc1nc(NC(=O)N2CCC[C@H]2C(N)=O)sc1-c1ccnc(C(C)(C)C(F)(F)F)c1 [Alpelisib] (partner 2 µM)
How it was run: as §1

| Cell Line | relative viability (Venetoclax + Navitoclax; first compound 0.01 µM) | relative viability (Venetoclax + Navitoclax; first compound 0.03162 µM) | relative viability (Venetoclax + Navitoclax; first compound 0.1 µM) | relative viability (Venetoclax + Navitoclax; first compound 0.3162 µM) | relative viability (Venetoclax + Navitoclax; first compound 1 µM) | relative viability (Venetoclax + Phenformin; first compound 0.01 µM) | relative viability (Venetoclax + Phenformin; first compound 0.03162 µM) | relative viability (Venetoclax + Phenformin; first compound 0.1 µM) | relative viability (Venetoclax + Phenformin; first compound 0.3162 µM) | relative viability (Venetoclax + Phenformin; first compound 1 µM) | relative viability (Selumetinib + Luminespib; first compound 0.02 µM) | relative viability (Selumetinib + Luminespib; first compound 0.06325 µM) | relative viability (Selumetinib + Luminespib; first compound 0.2 µM) | relative viability (Selumetinib + Luminespib; first compound 0.6325 µM) | relative viability (Selumetinib + Alpelisib; first compound 0.02 µM) | relative viability (Selumetinib + Alpelisib; first compound 0.06325 µM) | relative viability (Selumetinib + Alpelisib; first compound 0.2 µM) | relative viability (Selumetinib + Alpelisib; first compound 0.6325 µM) |
| --- | --- | --- | --- | --- | --- | --- | --- | --- | --- | --- | --- | --- | --- | --- | --- | --- | --- | --- |
| NCI-H322M | 1.25 | 1.11 | 1.11 | 1.35 | 1.16 | 0.781 | 0.793 | 0.763 | 0.886 | 0.803 | 0.739 | 0.547 | 0.572 | 0.481 | 0.643 | 0.549 | 0.563 | 0.532 |
| NCI-H441 | 0.659 | 1.09 | 0.627 | 0.482 | 0.47 | 0.83 | 0.706 | 0.787 | 0.805 | 0.868 | 0.25 | 0.272 | 0.204 | 0.28 | 0.775 | 0.754 | 0.656 | 0.647 |
| NCI-H460 | 0.996 | 1.16 | 1.1 | 1.07 | 1.09 | 0.424 | 0.55 | 0.478 | 0.497 | 0.461 | 0.0285 | 0.0384 | 0.041 | 0.0306 | 0.464 | 0.21 | 0.172 | 0.137 |
| NCI-H520 | 1.14 | 1.27 | 1.06 | 1.2 | 0.962 | 0.477 | 0.507 | 0.554 | 0.566 | 0.519 | 0.226 | 0.215 | 0.213 | 0.238 | 0.992 | 0.762 | 0.86 | 1 |
| NCI-H596 | 0.892 | 0.935 | 0.916 | 0.887 | 0.919 | 0.818 | 0.665 | 0.649 | 0.809 | 0.659 | 1.13 | 1.06 | 0.914 | 0.725 | 0.548 | 0.43 | 0.353 | 0.162 |
| NCI-H647 | 1.16 | 1.26 | 1.22 | 1.16 | 0.901 | 0.543 | 0.622 | 0.443 | 0.481 | 0.377 | 0.195 | 0.141 | 0.125 | 0.136 | 1.14 | 1.09 | 0.932 | 0.809 |
| NCI-H727 | 0.375 | 0.462 | 0.36 | 0.323 | 0.516 | 0.509 | 0.63 | 0.504 | 0.625 | 0.526 | 0.257 | 0.241 | 0.206 | 0.267 | 0.309 | 0.225 | 0.253 | 0.202 |
| NCI-H838 | 1.21 | 1.14 | 1.1 | 1.11 | 1.11 | 0.63 | 0.591 | 0.448 | 0.636 | 0.507 | 0.369 | 0.331 | 0.207 | 0.259 | 0.847 | 0.81 | 0.807 | 0.704 |
| NCI-H1355 | 0.892 | 0.972 | 0.804 | 0.915 | 0.897 | 0.436 | 0.474 | 0.467 | 0.468 | 0.412 | 0.665 | 0.736 | 0.6 | 0.476 | 0.77 | 0.791 | 0.591 | 0.444 |
| NCI-H1395 | 1.15 | 1.12 | 1.16 | 1.13 | 1.55 | 0.45 | 0.444 | 0.405 | 0.473 | 0.428 | 0.575 | 0.713 | 0.643 | 0.694 | 0.981 | 1.05 | 0.953 | 1.02 |
| NCI-H1437 | 1.07 | 1.09 | 1.04 | 1.04 | 0.977 | 0.377 | 0.348 | 0.266 | 0.34 | 0.296 | 1.15 | 1.13 | 1.03 | 0.782 | 0.914 | 0.855 | 0.292 | 0.206 |
| NCI-H1651 | 1.06 | 0.964 | 0.964 | 1.06 | 1.09 | 0.373 | 0.327 | 0.287 | 0.329 | 0.342 | 0.757 | 0.828 | 0.835 | 0.615 | 0.779 | 0.899 | 0.975 | 0.828 |
| NCI-H1666 | 0.616 | 0.986 | 0.978 | 0.971 | 0.901 | 0.546 | 0.605 | 0.531 | 0.582 | 0.56 | 0.996 | 0.829 | 0.943 | 0.757 | 0.701 | 0.721 | 0.478 | 0.551 |
| NCI-H1734 | 0.767 | 1 | 0.78 | 0.811 | 0.787 | 0.396 | 0.446 | 0.326 | 0.411 | 0.358 | 0.195 | 0.176 | 0.17 | 0.152 | 0.638 | 0.66 | 0.587 | 0.596 |
| NCI-H1755 | 1.01 | 0.988 | 0.96 | 0.999 | 0.925 | 0.645 | 0.616 | 0.573 | 0.629 | 0.555 | 0.715 | 0.531 | 0.495 | 0.368 | 0.896 | 0.845 | 0.783 | 0.856 |
| NCI-H1792 | 0.649 | 0.71 | 0.696 | 0.671 | 0.601 | 0.263 | 0.258 |  | 0.254 | 0.246 | 0.387 | 0.408 | 0.379 | 0.313 | 0.684 | 0.603 | 0.485 | 0.386 |
| NCI-H1793 | 0.375 | 0.454 | 0.287 | 0.461 | 0.382 | 0.457 | 0.354 | 0.271 | 0.36 | 0.303 | 0.15 | 0.163 | 0.154 | 0.184 | 0.786 | 0.646 | 0.41 | 0.452 |
